Holding throughout (format): cell-based
In assay [1] the test system is MAPK signaling (pAKT, pErk1/2). Description: Western blot of pAKT and pErk1/2 in KRAS mutant A549 cells treated with EGF, Methotrexate, C225 or combination. The protocol:
For Methotrexate treatments, A549 lung tumor cells were treated with 1.0 μM Methotrexate in full serum media for 24 hours followed by withdrawal of Methotrexate and serum starvation (1.0% FBS) for 48 hours in the absence or presence of 5 ng/ml EGF added for the final 10 minutes before harvest of the cells.

Another assay relates to MAPK signaling (pErk1/2). Description: Western blot of pErk1/2 (MAPK signaling) in A549 cells treated with Methotrexate, with or without EGF. The settings on record: as little as 1.0 μM for 24 hours, then serum starvation 48 hours, with or without 10 ng/ml EGF for final 10 minutes (FIG. 3). The procedure: Additionally, in vitro cell signaling studies were conduced to examine MAPK signaling in RAS mutant cells treated with Methotrexate. For Methotrexate treatments, A549 lung tumor cells were treated with 1.0 or 10.0 μM Methotrexate in full serum media for 24 hours followed by withdrawal of Methotrexate and serum starvation (1.0% FBS) for 48 hours in the absence or presence of 10 ng/ml EGF added for the final 10 minutes before harvest of the cells. Next, whole cell extracts were isolated for Western blot analysis of pErk1/2 and pAkt. The presence of β-actin served as an internal control for loading differences between lanes.
On the technique in general: Immunoblotting shows a protein as a band on a membrane.

The next assay deals with mutant Ras. Description: Immunocytochemistry staining for RAS in A549 lung tumor cells. The settings on record: A549 lung tumor cell line, 1.0 micromolar, 48 hours. The protocol: In an exemplary method, the A549 lung tumor cell line was treated for 48 hours with 1.0 micromolar Methotrexate followed by immunocytochemistry staining for RAS on slides.

With `CN(Cc1cnc2nc(N)nc(N)c2n1)c1ccc(C(=O)N[C@@H](CCC(=O)O)C(=O)O)cc1` [Methotrexate], the “inhibition of pErk1/2” value in assay [1] (EGF stimulation (5 ng/ml), agent alone: 1.0 μM Methotrexate or C225 up to 25 μg/ml) is given as “only slightly inhibited”. The “amount of detectable pAKT and pErk1/2” value in assay [1] (agent by itself (FIG. 4)) is “slight reduction”. Further, in the assay on MAPK signaling (pErk1/2), the “basal and EGF-induced pErk1/2 levels” value was “reduced both basal and EGF-induce pErk1/2 levels”. The “overall abundance of mutant Ras” value in the assay with mutant Ras (vs untreated cells (FIGS. 1 and 2)) is “diminished”. The “localization of mutant Ras” value with mutant Ras (vs untreated cells (diffuse and at the membrane)) is reported as “mislocalization from the plasma membrane resulting in highly cytoplasmic staining of mutant Ras”.

For “EGF: epidermal growth factor used to stimulate A549 cells (NSDSECPLSHDGYCLHDGVCMYIEALDKYACNCVVGYIGERCQYRDLKWWELR; Epidermal growth factor; UniProt P01133 971-1023, looked up)”, in assay [1] (EGF stimulation 5 ng/ml for final 10 minutes), the “activation of the MAPK pathway (pErk1/2 induction)” value was “potently activated”.

Values taken from US20110059081A1, “METHODS AND COMPOSITIONS FOR THE TREATMENT OF RECEPTOR TYROSINE KINASE MEDIATED DISEASES OR DISORDERS” (QUINTILES TRANSNATIONAL CORP., priority 2009, published 2011).
